≈ marks a conversion by molar mass, not a printed value. Where a SMILES comes first, the peptide text is derived from it. [ ]: non-standard residue; d: D form. pY = N[C@@H](Cc1ccc(OP(=O)(O)O)cc1)C(=O)O; Dopa = N[C@@H](Cc1ccc(O)c(O)c1)C(=O)O
Experiments:
Format in all cases: physicochemical
[1] = Evaluation of solution stability, pH 7.4, 25° C.; conditions: for HPLC purity difference: phosphate buffer pH 7.4, about 1 mg/mL, 25° C.
Procedure: A phosphate buffer solution at pH 7.4 was added to each of the compounds to dissolve the each of the compounds, and when necessary, a NaOH solution was added to adjust the pH of the mixture to prepare a solution of about 1 mg/mL. After storing this solution at 25° C. for about 1 day, HPLC purity (area percentage, %) was measured. The HPLC purity of the solution immediately after the preparation, or the HPLC purity of the compound, was subtracted from the HPLC purity after storage at 25° C. for about 1 day to obtain a HPLC purity difference. […] In Tables 9-1 and 9-2, “LDP-Ala” represents L-Tyrosine,N-L-alanyl-3-hydroxy-(9CI) and has the following structural formula: […]

[2] = Evaluation of solubility in water; conditions: for pH of filtrate: filtrate of the solubility test; for solubility at 24 h: thermodynamic from solid, water, shaken at 25° C. for 24 hours
Procedure: Water was added to each of the compounds to prepare a suspension, which was shaken at 25° C. for 24 hours, and then, filtration through a filter was performed to obtain a filtrate. A compound concentration in the filtrate was quantified using HPLC to obtain the solubility. Further, the pH of the filtrate was measured.

[3] = Evaluation of solution stability, pH 7.4, 60° C.; conditions: phosphate buffer pH 7.4, about 1 mg/mL, after about 1 day
Procedure: A phosphate buffer solution at pH 7.4 was added to each of the compounds to dissolve the each of the compounds, and when necessary, a NaOH solution was added to adjust the pH of the mixture to prepare a solution of about 1 mg/mL. After storing this solution at 60° C. for about 1 day, HPLC purity (area percentage, %) was measured. The HPLC purity of the solution immediately after the preparation, or the HPLC purity of the compound, was subtracted from the HPLC purity after storage at 60° C. for about 1 day to obtain a HPLC purity difference.

[4] = Long-term stability of 30% LD-Tyrosine/0.75% carbidopa at 2-8° C.
Procedure: The formulation also included 0.5% ascorbic acid (Asc), 0.5% N-acetyl cysteine (NAC) and 0.3% Tween 80. The formulation was stored at 2-8° C. for the time indicated, and % recovery and % LD-Tyr-DKP formation (an impurity) were tested. Percent recovery remained high over time. The DKP impurity accumulated over time.

SMILES	HPLC purity difference ([1]; after about 1 day) [%]	pH of filtrate [2]	solubility at 24 h [2] [mg/mL]	HPLC purity difference [3] [%]	stability in aqueous solutions near neutrality [1]	further results
N[C@@H](Cc1ccc(O)c(O)c1)C(=O)N[C@@H](Cc1ccc(OP(=O)(O)O)c(O)c1)C(=O)O [Example 2, (2S)-2-[[(2S)-2-amino-3-(3,4-dihydroxyphenyl)propanoyl]amino]-3-(3-hydroxy-4-phosphonooxyphenyl) propanoic acid]	−3.53	2.6	> 31.1			
C[C@H](N)C(=O)N[C@@H](Cc1ccc(O)c(O)c1)C(=O)O [LDP-Ala, L-Tyrosine,N-L-alanyl-3-hydroxy-(9CI), reference compound] (H-Ala-[Dopa]-OH)	−3.80			−25.00		
NCCCC[C@H](N)C(=O)N[C@@H](Cc1ccc(OP(=O)(O)O)c(O)c1)C(=O)O [Example 8, (2S)-2-[[(2S)-2,6-diaminohexanoyl]amino]-3-(3-hydroxy-4-phosphonooxyphenyl) propanoic acid]					stable	HPLC purity difference ([1]; after 1.9 days): 0.25 (after 1.9 days) %
N[C@@H](Cc1ccc(OP(=O)(O)O)cc1)C(=O)N[C@@H](Cc1ccc(O)c(O)c1)C(=O)O [Example 10, (2S)-2-[[(2S)-2-amino-3-(4-phosphonooxyphenyl)propanoyl]amino]-3-(3,4-dihydroxyphenyl) propanoic acid] (H-[pY]-[Dopa]-OH)	−0.67					
C[C@@](Cc1ccc(O)c(O)c1)(NN)C(=O)O [Carbidopa, carbidopa, reference compound]						mg/mL (concentration in formulation) ([4]; 1 month): 7.32 mg/mL; mg/mL (concentration in formulation) ([4]; 1 week): 7.36 mg/mL; mg/mL (concentration in formulation) ([4]; 2 months): 7.32 mg/mL; mg/mL (concentration in formulation) ([4]; 2 weeks): 7.30 mg/mL; mg/mL (concentration in formulation) ([4]; 3 months): 7.35 mg/mL; mg/mL (concentration in formulation) ([4]; t = 0): 7.37 mg/mL
C[C@H](N)C(=O)N[C@@H](Cc1ccc(OP(=O)(O)O)c(O)c1)C(=O)O [Example 1, (2S)-2-[[(2S)-2-aminopropanoyl]amino]-3-(3-hydroxy-4-phosphonooxyphenyl) propanoic acid]	−0.03	2.6	15.6 (≈ 44.8 mM)	−1.61	stable	

— patent US20240207410A1, “STABILIZED LIQUID COMPOSITIONS COMPRISING A LEVODOPA-TYROSINE CONJUGATE AND USES THEREOF” (NeuroDerm, Ltd., priority 2021, published 2024)
